Source: PMC8001995, “Sea Anemone Kunitz-Type Peptides Demonstrate Neuroprotective Activity in the 6-Hydroxydopamine Induced Neurotoxicity Model” (Biomedicines, 2021)

Assays:
Neuro-2a cells [1] = experiment: Intracellular ROS level, DCFH-DA probe, 6-OHDA-treated cells; type: cell-based, murine; settings: 25 µM 6-OHDA 30 min, no peptide
Experimental: (§1) Neuro-2a neuroblastoma cells (ATCC® CCL-131™) were obtained from American Type Culture Collection (Manassas, VA, USA). The cells were cultivated in DMEM medium (BioloT, St. Petersburg, Russia) supplemented with 10% of fetal bovine serum (BioloT, Russia) and 1% penicillin/streptomycin (BioloT, St. Petersburg, Russia) at 37 °C and 5% CO2. Initially, cells were incubated in cultural flasks until sub-confluent (~80%). For testing, Neuro-2a cells were seeded in 96-well plates and experiments were started after 24 h.
The level of intracellular ROS was measured using the ROS sensitive dye, 2,7-dichloro-fluorescein diacetate (DCFH-DA), as a probe. In brief, Neuro-2a cells were seeded in 96-well plates at 1 × 10^4 cells/well, culturing in the presence or absence of various concentrations of tested peptides for 1 h, and then 6-OHDA (25 µM) was added in each well for 30 min at 37 °C with 5% CO2. […] The fluorescence of 2,7-dichlorofluorescein (DCF) was detected with PHERAstar FS fluorescent plate reader (BMG Labtech, Ortenberg, Germany) at λex = 485 nm and λem = 518 nm. […] The cytoprotective effect of peptides and the increase in cell viability under their action was calculated as a percentage, taking the cell viability treated with 6-OHDA as 100%.

Neuro-2a cells [2] = experiment: 6-Hydroxydopamine-induced cytotoxicity (neuroprotection), MTT; type: cell-based, murine; settings: 25 µM 6-OHDA 24 h, no peptide; versus control
Experimental: as §1
Neuro-2a cells were seeded at 1 × 10^4 cells/well in 96-well plates for studying of neuroprotective activity of peptides. The tested peptides were added to the cell monolayer and cells were incubated at 37 °C for 1 h. Then, the cells were exposed to 6-OHDA (Sigma-Aldrich, St. Louis, MO, USA) at 25 µM for 24 h at 37 °C with 5% CO2. Thereafter, the medium was replaced with clean serum-free medium, and the number of viable cells was determined by MTT assay. Neuro-2a cells were cultured without test compound or neurotoxins as the control group. Results were expressed in percentage of control as the mean ± SEM of three independent replicates.

[3] = DPPH radical scavenging cell free assay; settings: 10 µM compound, 30 min, absorbance 520 nm, versus MeOH control, mean ± SEM of three independent replicates
Experimental: The 2,2-diphenyl-1-picryl-hydrazyl-hydrate (DPPH) radical scavenging activity was tested as described previously. The compound solutions (120 µL) were dispensed into wells of a 96-well microplate. The DPPH (Sigma-Aldrich, Germany) was dissolved in MeOH at concentration of 7.5 µM and the solution (30 µL) was added to each well. The concentrations of tested compounds in the mixtures were 10 µM. The mixtures were shaken and left for 30 min. The absorbance of the resulting solutions was measured at λ = 520 nm with a MultiscanFC plate reader (Thermo Fisher Scientific, Waltham, MA, USA). The scavenging of the DPPH radical in comparison with control (MeOH) (%) was calculated for each compound. Ascorbic acid at 10 µM was used as positive control.

For `NCCc1cc(O)c(O)cc1O` [Peptide 6-OHDA, 6-hydroxydopamine], the “ROS level in 6-OHDA-treated cells” value (Neuro-2a cells [1]) was “up to 130 % to the control level” and the “Viability of Neuro-2a cells treated with 6-OHDA” value (Neuro-2a cells [2]) was 42.6%.
With `O=C1O[C@H]([C@@H](O)CO)C(O)=C1O` [Ascorbic acid] the “Scavenging of DPPH Radicals” value [3] was 33.8 ± 2.4%.
